Measured values taken from patent US5679671A, “Amino acid derivative” (Eisai Co., Ltd., priority 1993, dated 1997).

Molecular target: T1, NEP (Rattus norvegicus, UniProt P07861)
T1 sequence (P07861 1-750): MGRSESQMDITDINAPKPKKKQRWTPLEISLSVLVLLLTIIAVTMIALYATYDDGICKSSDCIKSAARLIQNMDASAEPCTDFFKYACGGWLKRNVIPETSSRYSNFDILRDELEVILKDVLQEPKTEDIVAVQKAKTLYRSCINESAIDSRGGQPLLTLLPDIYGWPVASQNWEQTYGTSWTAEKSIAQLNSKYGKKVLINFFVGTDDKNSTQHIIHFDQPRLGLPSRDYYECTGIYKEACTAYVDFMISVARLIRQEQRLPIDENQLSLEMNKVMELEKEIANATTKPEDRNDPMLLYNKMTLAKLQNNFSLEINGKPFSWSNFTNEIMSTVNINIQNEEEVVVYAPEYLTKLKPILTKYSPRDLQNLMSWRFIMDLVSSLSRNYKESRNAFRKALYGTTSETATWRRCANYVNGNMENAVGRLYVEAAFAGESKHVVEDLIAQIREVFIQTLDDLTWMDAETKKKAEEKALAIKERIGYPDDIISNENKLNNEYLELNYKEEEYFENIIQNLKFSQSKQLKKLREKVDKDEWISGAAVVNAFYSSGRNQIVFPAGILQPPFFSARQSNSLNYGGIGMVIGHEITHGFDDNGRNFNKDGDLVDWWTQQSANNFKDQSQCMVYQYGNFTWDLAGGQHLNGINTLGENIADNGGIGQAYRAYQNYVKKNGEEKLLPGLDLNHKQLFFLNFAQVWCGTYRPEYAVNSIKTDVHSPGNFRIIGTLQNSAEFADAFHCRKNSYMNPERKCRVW
Assay: NEP inhibition activity (Experiment F-1)
Assay type: biochemical
Parameters: membrane fraction prepared from rat renal cortex; from tissue; host or cells: rat renal cortex, membrane fraction (method of Booth and Kenny)
Settings: rat renal cortex membrane fraction
Method: As a source of the enzyme NEP, a membrane fraction prepared from rat renal cortex in accordance with the method of Booth and Kenny (A Rapid Method for the Purification of Microvilli from Rabbit Kidney., Andrew G. Booth and A. John Kenny, Biochem. j., 1974, 142, 575-581.) was employed. The NEP activity was determined in accordance with the method of Orlowsky and Wilk (Purification and Specificity of a Membrane-Bound Metalloendpeptidase from Bovine Pituitaries., Marian Orlowsky and Shrwin Wilk, Biochemistry, 1981, 20, 4942-4950.). Now the procedure will be briefly described.
As a substrate, benzoyl-glycyl-arginyl-arginyl-2-naphthylamide (benzoyl-Gly-Arg-Arg-2-naphthylamide (Nova Biochem, Switzerland)) was used. In the presence of an NEP enzyme preparation and excessive leucine aminopeptidase (sigma chemical Co., U.S.A.), the liberated naphthylamine was made to undergo color development with first garnet (Sigma chemical Co., U.S.A.), followed by the measurement of the absorbance at a wavelength of 540 nm.
With respect to the NEP inhibition activity and the ACE inhibition activity, the inhibitor was added to the assay systems of both enzyme activities as described above in such a manner as to give the final concentrations of 1, 3, 10, 30, 100, 300 and 1000 inhibition curves were prepared, and then the concentration at which 50% inhibition was achieved was taken as IC50.

IC50 [nM]	SMILES
13.5	O=C(N[C@H]1Cc2ccccc2[C@H]2CCC[C@@H](C(=O)O)N2C1=O)[C@@H](S)Cc1ccccc1 [Comp. cpd. E-1, [4S-[4α,7α(R*),12bβ]]-7-[(1-oxo-2-(S)-thio-3-phenyl-propyl)amino]-1,2,3,4,6,7,8,12b-octahydro-6-oxopyrido-[2,1-a][2]benzazepine-4-carboxylic acid, reference compound]
9.2	CC[C@H](C)[C@H](S)C(=O)N[C@H]1CCC[C@H]2SC[C@@H](C(=O)O)N2C1=O [Example C-8, [3R-[3α,6α,(S*),9aβ]]-6-[[(2S,3S)-3-methyl-1-oxo-2-thiopentyl]amino]-octahydro-5-oxothiazol[3,2-a]-azepine-3-carboxylic acid]
11.1	O=C(N[C@H]1CCC[C@H]2SC[C@@H](C(=O)O)N2C1=O)[C@@H](S)Cc1ccccc1 [Example F-17, [3R-[3α,6α(S*),9aβ]]-6-[[(S)-1-Oxo-2-thio-3-phenylpropyl]amino]-octahydro-5-oxothiazol[3,2-a]-azepine-3-carboxylic acid]
